Reference: ChEMBL document CHEMBL1134975, “3-Hydroxy-4-methyl-5-pentyl-2-iminopyrrolidine: a potent and highly selective inducible nitric oxide synthase inhibitor” (Bioorg Med Chem Lett, 2002)

How the values were obtained:
Nitric oxide synthase 1 = Nitric oxide synthase 1 (Homo sapiens, UniProt P29475); test: Inhibitory concentration against Neuronal nitric oxide synthase
[1] = target: Nitric oxide synthase, inducible (Homo sapiens, UniProt P35228); test: Inhibitory concentration against Inducible nitric oxide synthase (iNOS)
Nitric oxide synthase 3 [2] = target: T1, Nitric oxide synthase 3 (Homo sapiens, UniProt P29474); test: Inhibitory activity against Endothelial nitric oxide synthase
T1 sequence (P29474 whole entry): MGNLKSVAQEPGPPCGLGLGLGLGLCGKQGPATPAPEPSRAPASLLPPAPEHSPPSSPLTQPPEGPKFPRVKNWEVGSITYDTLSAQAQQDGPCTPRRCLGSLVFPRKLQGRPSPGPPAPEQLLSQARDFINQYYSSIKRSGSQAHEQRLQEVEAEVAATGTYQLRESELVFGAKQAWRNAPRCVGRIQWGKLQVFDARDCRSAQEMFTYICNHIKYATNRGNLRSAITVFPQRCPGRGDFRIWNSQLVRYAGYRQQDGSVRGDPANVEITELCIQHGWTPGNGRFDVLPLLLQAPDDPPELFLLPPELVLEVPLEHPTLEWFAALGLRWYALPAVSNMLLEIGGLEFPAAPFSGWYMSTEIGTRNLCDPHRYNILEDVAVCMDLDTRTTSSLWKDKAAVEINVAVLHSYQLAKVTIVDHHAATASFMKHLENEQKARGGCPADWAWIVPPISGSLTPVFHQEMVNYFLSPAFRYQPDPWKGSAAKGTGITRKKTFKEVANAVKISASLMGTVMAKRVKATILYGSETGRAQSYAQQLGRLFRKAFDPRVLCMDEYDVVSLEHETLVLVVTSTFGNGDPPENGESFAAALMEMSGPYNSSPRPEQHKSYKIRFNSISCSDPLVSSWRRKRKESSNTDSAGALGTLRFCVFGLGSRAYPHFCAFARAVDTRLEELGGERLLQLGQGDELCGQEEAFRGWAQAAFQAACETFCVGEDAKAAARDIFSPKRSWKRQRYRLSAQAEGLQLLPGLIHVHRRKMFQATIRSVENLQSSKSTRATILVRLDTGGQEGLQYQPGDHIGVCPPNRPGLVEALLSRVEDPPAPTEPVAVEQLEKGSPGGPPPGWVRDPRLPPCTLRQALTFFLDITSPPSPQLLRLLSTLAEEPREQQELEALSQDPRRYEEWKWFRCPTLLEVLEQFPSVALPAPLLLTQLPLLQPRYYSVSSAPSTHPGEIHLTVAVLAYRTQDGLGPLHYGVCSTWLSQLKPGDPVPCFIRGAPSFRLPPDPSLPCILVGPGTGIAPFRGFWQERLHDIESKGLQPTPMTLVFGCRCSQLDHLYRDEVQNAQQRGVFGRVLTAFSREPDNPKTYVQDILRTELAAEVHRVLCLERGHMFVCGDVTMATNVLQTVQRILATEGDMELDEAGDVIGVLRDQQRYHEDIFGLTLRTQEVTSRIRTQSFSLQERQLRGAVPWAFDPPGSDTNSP

Nitric oxide synthase 3 [3] = target: T1, Nitric oxide synthase 3; test: Inhibitory concentration against Endothelial nitric oxide synthase

Nitric oxide synthase, inducible, sequence (P35228 whole entry): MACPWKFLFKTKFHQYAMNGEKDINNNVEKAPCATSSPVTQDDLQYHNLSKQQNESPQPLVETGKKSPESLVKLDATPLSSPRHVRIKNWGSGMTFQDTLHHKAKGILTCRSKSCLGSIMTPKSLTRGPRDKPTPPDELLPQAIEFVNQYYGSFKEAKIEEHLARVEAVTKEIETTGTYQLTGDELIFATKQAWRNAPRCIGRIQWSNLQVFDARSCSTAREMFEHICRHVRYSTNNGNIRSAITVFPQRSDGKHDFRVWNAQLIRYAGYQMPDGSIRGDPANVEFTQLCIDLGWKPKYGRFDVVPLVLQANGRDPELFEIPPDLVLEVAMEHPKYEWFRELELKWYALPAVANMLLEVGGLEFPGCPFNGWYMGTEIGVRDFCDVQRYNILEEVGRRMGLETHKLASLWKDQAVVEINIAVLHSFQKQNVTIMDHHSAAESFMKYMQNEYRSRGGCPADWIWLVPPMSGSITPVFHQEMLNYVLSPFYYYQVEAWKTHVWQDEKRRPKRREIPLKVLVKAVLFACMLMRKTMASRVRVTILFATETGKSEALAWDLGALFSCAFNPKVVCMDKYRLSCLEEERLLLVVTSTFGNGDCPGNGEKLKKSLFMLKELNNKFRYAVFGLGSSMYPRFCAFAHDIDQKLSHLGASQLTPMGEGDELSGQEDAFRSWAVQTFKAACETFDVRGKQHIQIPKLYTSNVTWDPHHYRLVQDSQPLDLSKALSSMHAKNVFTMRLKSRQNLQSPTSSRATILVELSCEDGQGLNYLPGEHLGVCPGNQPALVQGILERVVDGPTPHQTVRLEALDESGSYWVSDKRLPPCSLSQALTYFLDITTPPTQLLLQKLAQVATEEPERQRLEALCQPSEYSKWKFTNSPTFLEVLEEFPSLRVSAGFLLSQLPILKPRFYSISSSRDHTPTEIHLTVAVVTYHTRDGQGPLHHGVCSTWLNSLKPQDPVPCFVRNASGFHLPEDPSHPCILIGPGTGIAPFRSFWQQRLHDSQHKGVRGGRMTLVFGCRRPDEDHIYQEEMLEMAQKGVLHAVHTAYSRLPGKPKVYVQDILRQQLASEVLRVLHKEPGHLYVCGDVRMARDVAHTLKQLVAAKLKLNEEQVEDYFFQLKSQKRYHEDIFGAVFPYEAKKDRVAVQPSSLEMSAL
Nitric oxide synthase 1, sequence (P29475 whole entry): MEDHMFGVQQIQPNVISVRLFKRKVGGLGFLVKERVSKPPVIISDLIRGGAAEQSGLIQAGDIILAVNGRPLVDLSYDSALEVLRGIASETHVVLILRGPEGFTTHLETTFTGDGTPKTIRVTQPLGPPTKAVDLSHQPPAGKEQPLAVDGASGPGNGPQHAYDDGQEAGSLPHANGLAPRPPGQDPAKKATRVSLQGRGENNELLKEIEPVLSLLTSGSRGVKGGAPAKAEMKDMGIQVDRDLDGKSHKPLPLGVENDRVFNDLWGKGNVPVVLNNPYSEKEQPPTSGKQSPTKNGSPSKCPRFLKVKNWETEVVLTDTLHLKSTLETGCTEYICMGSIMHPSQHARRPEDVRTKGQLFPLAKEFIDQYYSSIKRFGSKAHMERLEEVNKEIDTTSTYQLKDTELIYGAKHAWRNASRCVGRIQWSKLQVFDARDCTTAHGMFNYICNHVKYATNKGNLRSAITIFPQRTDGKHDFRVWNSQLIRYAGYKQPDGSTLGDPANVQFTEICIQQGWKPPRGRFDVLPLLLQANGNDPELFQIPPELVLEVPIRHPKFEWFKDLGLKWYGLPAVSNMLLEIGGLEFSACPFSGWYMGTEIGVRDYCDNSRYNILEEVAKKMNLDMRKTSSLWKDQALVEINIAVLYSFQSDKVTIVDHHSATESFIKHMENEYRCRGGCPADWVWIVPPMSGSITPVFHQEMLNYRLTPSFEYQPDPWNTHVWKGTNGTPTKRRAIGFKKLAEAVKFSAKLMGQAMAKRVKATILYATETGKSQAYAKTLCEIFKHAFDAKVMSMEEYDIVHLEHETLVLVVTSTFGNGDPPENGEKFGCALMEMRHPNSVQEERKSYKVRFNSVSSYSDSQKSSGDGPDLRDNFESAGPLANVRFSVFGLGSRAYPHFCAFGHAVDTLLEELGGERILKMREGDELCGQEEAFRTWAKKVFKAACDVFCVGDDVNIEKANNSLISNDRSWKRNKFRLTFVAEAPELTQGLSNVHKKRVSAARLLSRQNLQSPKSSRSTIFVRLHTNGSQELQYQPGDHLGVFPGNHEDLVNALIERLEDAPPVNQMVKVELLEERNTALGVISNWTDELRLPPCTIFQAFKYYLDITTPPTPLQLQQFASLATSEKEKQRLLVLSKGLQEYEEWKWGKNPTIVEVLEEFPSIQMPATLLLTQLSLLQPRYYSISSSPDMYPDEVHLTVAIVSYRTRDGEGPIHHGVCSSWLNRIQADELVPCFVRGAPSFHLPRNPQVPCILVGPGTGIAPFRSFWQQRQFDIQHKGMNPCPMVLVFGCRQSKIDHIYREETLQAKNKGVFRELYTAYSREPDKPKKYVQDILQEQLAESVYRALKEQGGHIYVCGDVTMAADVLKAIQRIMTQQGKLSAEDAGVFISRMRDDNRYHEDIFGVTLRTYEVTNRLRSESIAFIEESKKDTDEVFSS

Row | Compound | IC50 (Nitric oxide synthase 1) [µM] | IC50 [1] [µM] | IC50 (Nitric oxide synthase 3 [2]) [µM] | IC50 (Nitric oxide synthase 3 [3]) [µM]
1 | CCCCC[C@H]1NC(=N)[C@@H](O)[C@H]1C | 27 | 0.78 | 1980 | –
2 | CCCCC[C@@H]1N=C(N)[C@H](O)[C@@H]1C | 49 | 2.8 | – | 2930
3 | CCCCC[C@H]1N=C(N)[C@H](O)[C@H]1C | 8.9 | 1.8 | – | 695
4 | CCCCC[C@H]1NC(=N)C[C@H]1C | 3.2 | 0.25 | 226 | –
5 | CCCCC[C@@H]1N=C(N)[C@@H](O)[C@@H]1C | 20 | 1.8 | – | 930
6 | CCCCC[C@H]1NC(=N)C[C@H]1C (single isomer, unassigned) | 21 | 4.5 | 578 | –
